What all share (type): cell-based
Assay [1] relates to Kir2.1Y channel. The assay is described as follows: FRAC: recovery of Kir2.1Y channel activity (Rb+ efflux) after MTSET chemobleaching. The text has this:
To assay the transit time of nacently surfaced receptor, we first modify, inhibit, or change (pulse) accessible functional molecules on the cell surface and then monitor the recovery of the original function/activity at subsequent time points (chase). One thus may determine the time required to populate the cell surface with newly inserted cell surface molecules (FIG. 1). Designing versions of this assay involves consideration of at least four factors. (i) A functional assay preferably monitors activity predominantly or only from molecules on the cell surface. […] (iii) The activity detection should be relatively short compared with the time required to repopulate the cell surface with functional molecules. (iv) The pulse should be rapid, quantitative, and optionally irreversible, thereby allowing detection of the activity contributed only by the newly arrived (or newly activated) proteins on the cell surface. These are considerations only, rather than mandatory properties. Deviation from one of these considerations may involve compensation by another. Furthermore, one of ordinary skill in the art will appreciate that treatment of cell surfaces can be restricted to a desirable area, such as the apical surface of epithelial cells. Thus, spatially restricted populations of cell surface receptors can be affected.
Rb^+ Flux Assay and Atomic Absorption Spectrometry. All assays shown were performed at room temperature in poly(L-lysine) (0.1 mg/ml)-coated 24-well microplates. For experiments with transiently transfected cells, ˜1×10^5 cells were seeded in each well the day before transfection (0.3 μg of DNA per well). Sodium butyrate at 5 mM was added 6-8 h after transfection. The assays were performed 24 h after transfection. […]
Rb^+ Efflux. […] The Rb^+ concentration in each sample was analyzed using the ICR 8000. Rb^+ efflux (%) was determined as: 100%×[Rb^+]sup/([Rb^+]sup+[Rb^+]lysate) where [Rb^+]sup represents the Rb^+ concentration in the supernatant, and [Rb^+]lysate represents the Rb^+ concentration in the cell lysate. […]

In assay [2] the test system is Kir2.1Y channel. The assay is described as follows: Rb+ efflux of 293 cells stably expressing Kir2.1Y incubated with BFA without MTSET treatment. On the procedure:
(§1) Rb^+ Flux Assay and Atomic Absorption Spectrometry. All assays shown were performed at room temperature in poly(L-lysine) (0.1 mg/ml)-coated 24-well microplates. For experiments with transiently transfected cells, ˜1×10^5 cells were seeded in each well the day before transfection (0.3 μg of DNA per well). Sodium butyrate at 5 mM was added 6-8 h after transfection. The assays were performed 24 h after transfection. HEK 293 cells stably expressing either Kir2.1 or Kir2.1Y channel were seeded with a cell density of 2×10^5 cells per well. To enhance expression, 5 mM sodium butyrate was added 4-6 h after seeding. Cells then were cultured continuously for 16-20 h before experiments.
Rb^+ Efflux. To load Rb^+ into cells, we incubated cells in 0.5 ml per well 50/50 DMEM/F12 complete growth medium containing ˜5 mM RbCl at 37° C. for 3-4 h. Cells then were washed twice quickly with 1 ml per well non-Rb^+ medium to remove residual Rb^+. […] The Rb^+ concentration in each sample was analyzed using the ICR 8000. Rb^+ efflux (%) was determined as: 100%×[Rb^+]sup/([Rb^+]sup+[Rb^+]lysate) where [Rb^+]sup represents the Rb^+ concentration in the supernatant, and [Rb^+]lysate represents the Rb^+ concentration in the cell lysate. […]

A further assay has as its system Kir2.1. Briefly: Rb+ efflux of 293 cells stably expressing Kir2.1 incubated with BFA without MTSET treatment. To be noted: BFA 3 h, absence of MTSET treatment (data not shown). On the procedure: as §1
Rb^+ Efflux. […] The Rb^+ concentration in each sample was analyzed using the ICR 8000. Rb^+ efflux (%) was determined as: 100%×[Rb^+]sup/([Rb^+]sup+[Rb^+]lysate) where [Rb^+]sup represents the Rb^+ concentration in the supernatant, and [Rb^+]lysate represents the Rb^+ concentration in the cell lysate.
In the case of Kir2.1, we observed reproducible ˜30% reduction over the same period of incubation (data not shown). […] For Kir2.1Y, the combination of quantitative elimination of surface channel activity by MTSET, the >90% activity recovery, and little detectable reduction of Rb^+ efflux in the presence of BFA then would predict a 2-fold increase of protein signal on the cell surface. […]

In assay [3] the test system is Kir2.1Y channel. The assay is described as follows: Rb+ influx assay of HEK 293 cells transiently transfected with Kir2.1Y, with MTSET treatment. To be noted: MTSET treatment before the assay (2.5 mM per FIG. 2 legend). On the procedure: as §1
Rb^+ Influx. To perform the assay, cells first were incubated in 50/50 DMEM/F12 complete growth medium containing 5 mM RbCl for the indicated time periods before the medium was quickly aspirated. Cells then were washed twice quickly with non-Rb^+ DMEM/F12 medium and lysed with 0.5 ml of 0.1% SDS per well. The Rb^+ concentration in cell lysates was measured by atomic absorption spectrophotometry (ICR8000, Aurora Biomed, Vancouver), according to the manufacturer's user manual.
(§2) To monitor the specificity of the Rb^+ assay and the effectiveness of Rb^+ detection by atomic absorption spectrometry (19), we measured the Rb^+ uptake signals of transiently transfected cells at different times of incubation. […]

The subject of assay [4] is Kir2.1Y channel. The assay is described as follows: Rb+ efflux assay of 293 cells stably expressing Kir2.1Y, with MTSET treatment. The conditions noted are these: stable Kir2.1Y line, FIG. 2c. On the procedure:
as §1
Rb^+ Efflux. To load Rb^+ into cells, we incubated cells in 0.5 ml per well 50/50 DMEM/F12 complete growth medium containing ˜5 mM RbCl at 37° C. for 3-4 h. […] The Rb^+ concentration in each sample was analyzed using the ICR 8000. Rb^+ efflux (%) was determined as: 100%×[Rb^+]sup/([Rb^+]sup+[Rb^+]lysate) where [Rb^+]sup represents the Rb^+ concentration in the supernatant, and [Rb^+]lysate represents the Rb^+ concentration in the cell lysate.
as §2

A further assay addresses T1, wild-type Kir2.1 (Homo sapiens, UniProt P63252).
T1 sequence (P63252 1-427): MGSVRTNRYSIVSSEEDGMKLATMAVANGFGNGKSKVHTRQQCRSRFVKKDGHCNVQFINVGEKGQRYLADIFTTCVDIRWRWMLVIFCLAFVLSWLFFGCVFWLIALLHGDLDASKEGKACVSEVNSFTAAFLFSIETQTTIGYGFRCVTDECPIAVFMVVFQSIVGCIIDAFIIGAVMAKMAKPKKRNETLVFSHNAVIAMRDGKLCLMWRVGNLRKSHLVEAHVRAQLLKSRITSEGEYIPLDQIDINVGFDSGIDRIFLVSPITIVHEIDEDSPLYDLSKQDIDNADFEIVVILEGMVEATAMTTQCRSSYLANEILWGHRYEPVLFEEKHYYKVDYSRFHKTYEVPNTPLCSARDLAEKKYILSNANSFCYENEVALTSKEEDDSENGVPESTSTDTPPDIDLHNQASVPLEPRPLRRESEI
The assay is described as follows: Rb+ flux assay of wild-type Kir2.1 with MTSET. The source says:
(§3) Earlier reports using electrophysiological recording have shown that membrane-nonpermeable MTS reagents such as MTSET reduce or abolish the current of Kir2.1 by covalently modifying the reduced form of cysteine residues already present in the channel protein or introduced by site-directed mutagenesis (18). It is not known whether or to what extent the modifications by MTS reagents will affect channel activity measured by a Rb^+ flux assay. We tested several cysteine positions of Kir2.1 mutants using MTSET, a positively charged cysteinyl sulfhydryl-specific reagent.

The next assay deals with Kir2.1 mutation of C149. The assay is described as follows: Electrophysiological recording and Rb+ assay of Kir2.1 C149 mutant with MTSET. The conditions noted are these: electrophysiological recording and Rb+ assay (data not shown).
Excerpt: as §3

Several values for one entry are separate records, joined by “and”; a condition that tells them apart may be missing. Identical values can stand only once. Entries after “also recorded” stand apart in the source; their conditions may differ.

For `C[C@H]1CCC/C=C/[C@@H]2C[C@H](O)C[C@H]2[C@H](O)/C=C/C(=O)O1` [BFA, Brefeldin A], the activity recovery in the assay on Kir2.1Y channel [1] (1 μM BFA at 37° C. for 3 h, added immediately after 5-min MTSET treatment (FIG. 5a)) was < 20% and 20%. In the assay on Kir2.1Y channel [1] (recovery at 3 h, 37° C., FIG. 5b), the “BFA concentration at which the effect reaches a plateau” value is greater than 0.6 µM. In the assay on Kir2.1Y channel [2] (absence of MTSET treatment, 3-h incubation, FIG. 5b), the “sensitivity of surface channel activity to BFA concentrations” value is listed as “no sensitivity”. In the assay on Kir2.1Y channel [2] (without MTSET treatment, 3-h incubation with BFA), the “effect on activity of channels already on the cell surface (Rb+ efflux)” value was “did not affect the activity; also recorded: did not result in a detectable reduction”. In addition, in the assay with Kir2.1, the “reduction of Rb+ efflux activity” value was roughly 30%.
Turning to `C[N+](C)(C)CCSS(C)(=O)=O.[Br-]` [MTSET, [2-(trimethylammonium)ethyl]methanethiosulfonate bromide], in the assay with Kir2.1Y channel [3], the “specific Rb+ uptake signal abolished” value was greater than 80%. For the same molecule, the “Rb+ efflux signal after MTSET treatment” value in the assay with Kir2.1Y channel [4] was “only background signals were observed”. Besides, on wild-type Kir2.1, the “effect of MTSET on channel activity” value was “quantitatively nullified”. In addition, in the assay with Kir2.1 mutation of C149, the “sensitivity to MTSET” value is on record as “loss of sensitivity”.
Take `C[C@@H]1C[C@@H]([C@H](O)CC2CC(=O)NC(=O)C2)C(=O)[C@@H](C)C1` [cycloheximide]: the activity recovery in the assay with Kir2.1Y channel [1] (cycloheximide in FRAC experiments (data not shown)) stood at 40%.

These data come from patent publication US7883893B2, “Method to assay test substances” (priority 2005, dated 2011).
